Results taken from ChEMBL document CHEMBL4346710, “Discovery of 7H-pyrrolo[2,3-d]pyrimidine derivatives as selective covalent irreversible inhibitors of interleukin-2-inducible T-cell kinase (Itk)” (Eur J Med Chem, 2019).
Calls of active or inactive are those of the source. The calls are words filed in the database; no cut-off is given here.

Legend:
H9 = experiment: Growth inhibition of human H9 cells incubated for 72 hrs by CellTiter-Glo luminescent cell viability assay; assay type: functional; settings: H9, 72 h
[1] = molecular target: Glycogen synthase kinase-3 alpha (Homo sapiens) (UniProt P49840); experiment: Inhibition of recombinant full length human His-tagged GSK3alpha expressed in baculovirus expression system assessed as enzyme residual activity at 0.4 uM using fluorophore-labeled serine/threonine-9 peptide as substrate incubated for 60 mins by Z'-LYTE assay relative to control
Sequence of Glycogen synthase kinase-3 alpha (Homo sapiens) (P49840 2-483 limits assumed): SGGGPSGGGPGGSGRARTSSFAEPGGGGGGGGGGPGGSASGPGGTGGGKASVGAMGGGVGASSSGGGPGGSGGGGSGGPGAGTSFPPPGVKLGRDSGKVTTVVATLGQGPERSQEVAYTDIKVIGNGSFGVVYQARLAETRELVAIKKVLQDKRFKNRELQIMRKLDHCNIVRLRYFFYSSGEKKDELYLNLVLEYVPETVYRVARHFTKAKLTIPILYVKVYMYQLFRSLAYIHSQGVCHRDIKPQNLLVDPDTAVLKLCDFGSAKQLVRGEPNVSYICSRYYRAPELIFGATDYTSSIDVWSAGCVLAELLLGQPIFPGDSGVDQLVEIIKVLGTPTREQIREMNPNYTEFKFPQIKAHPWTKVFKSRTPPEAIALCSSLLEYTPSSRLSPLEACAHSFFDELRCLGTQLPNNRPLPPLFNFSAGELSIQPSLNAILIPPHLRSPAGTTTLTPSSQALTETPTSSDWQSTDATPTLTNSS

[2] = molecular target: Serine/threonine-protein kinase Sgk1 (Homo sapiens) (UniProt O00141); experiment: Inhibition of recombinant human GST-tagged SGK1 catalytic domain (60 to 431 residues) expressed in baculovirus expression system assessed as enzyme residual activity at 0.4 uM using fluorophore-labeled serine/threonine-6 peptide as substrate incubated for 60 mins by Z'-LYTE assay relative to control
Sequence of Serine/threonine-protein kinase Sgk1 (Homo sapiens) (O00141 whole entry, the tested form may be a part): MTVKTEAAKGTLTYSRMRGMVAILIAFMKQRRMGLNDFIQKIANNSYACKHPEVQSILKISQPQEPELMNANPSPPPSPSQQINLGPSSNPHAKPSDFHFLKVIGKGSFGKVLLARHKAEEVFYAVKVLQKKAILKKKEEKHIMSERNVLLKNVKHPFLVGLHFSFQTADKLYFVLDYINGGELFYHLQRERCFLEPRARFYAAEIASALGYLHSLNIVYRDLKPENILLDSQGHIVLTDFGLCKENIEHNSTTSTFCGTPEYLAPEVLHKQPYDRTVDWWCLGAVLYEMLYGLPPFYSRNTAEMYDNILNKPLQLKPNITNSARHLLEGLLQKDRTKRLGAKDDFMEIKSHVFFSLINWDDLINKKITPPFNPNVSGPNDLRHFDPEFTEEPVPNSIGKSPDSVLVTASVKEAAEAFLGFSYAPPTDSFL

MOLT-4 [3] = experiment: Induction of apoptosis in human MOLT4 cells assessed as downregulation of caspase3 at 1 to 20 uM incubated for 24 hrs by Western blot analysis; assay type: functional, cell-based
Homo sapiens [4] = organism: Homo sapiens; experiment: Selectivity ratio of IC50 for recombinant human full-length N-terminal His6-tagged BTK expressed in baculovirus infected Sf21 insect cells to IC50 for recombinant human N-terminal His6-tagged ITK (352 to 617 residues) expressed in baculovirus infected Sf21 insect cells
[5] = molecular target: T1, Tyrosine-protein kinase BTK (Homo sapiens, UniProt Q06187); experiment: Inhibition of recombinant full length human His-tagged BTK cytoplasmic domain expressed in baculovirus expression system assessed as enzyme residual activity at 0.4 uM using fluorophore-labeled tyrosine-1 peptide as substrate incubated for 60 mins by Z'-LYTE assay relative to control
T1 sequence (Q06187 whole entry, the tested form may be a part): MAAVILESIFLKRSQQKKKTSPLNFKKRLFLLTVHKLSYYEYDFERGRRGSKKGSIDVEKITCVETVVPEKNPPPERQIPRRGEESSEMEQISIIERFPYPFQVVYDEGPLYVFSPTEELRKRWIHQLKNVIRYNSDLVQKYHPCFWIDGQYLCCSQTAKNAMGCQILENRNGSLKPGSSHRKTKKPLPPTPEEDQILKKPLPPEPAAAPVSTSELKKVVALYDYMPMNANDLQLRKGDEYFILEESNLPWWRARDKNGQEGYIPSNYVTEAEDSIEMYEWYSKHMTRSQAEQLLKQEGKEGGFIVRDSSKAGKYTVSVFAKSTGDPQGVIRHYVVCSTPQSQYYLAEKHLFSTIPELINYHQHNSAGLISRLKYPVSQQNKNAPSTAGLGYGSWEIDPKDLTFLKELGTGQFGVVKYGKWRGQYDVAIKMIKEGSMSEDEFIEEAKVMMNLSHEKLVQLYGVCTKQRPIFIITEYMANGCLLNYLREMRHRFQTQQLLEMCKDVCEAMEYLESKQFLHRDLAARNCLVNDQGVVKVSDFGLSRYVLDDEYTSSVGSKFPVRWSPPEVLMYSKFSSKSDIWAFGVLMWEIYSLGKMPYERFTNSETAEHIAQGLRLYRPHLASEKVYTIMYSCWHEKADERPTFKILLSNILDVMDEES

CCRF-CEM = experiment: Growth inhibition of human CCRF-CEM cells incubated for 72 hrs by CellTiter-Glo luminescent cell viability assay; assay type: functional
Jurkat = experiment: Induction of apoptosis in human Jurkat cells assessed as upregulation of cleaved PARP at 1 to 20 uM incubated for 24 hrs by Western blot analysis; assay type: functional, cell-based
[6] = molecular target: T2, Tyrosine-protein kinase ITK/TSK (Homo sapiens) (UniProt Q08881); experiment: Inhibition of recombinant human N-terminal His6-tagged ITK (352 to 617 residues) expressed in baculovirus infected Sf21 insect cells assessed as ratio of Kinact to Ki using STK substrate by HTRF assay
T2 sequence (whole entry): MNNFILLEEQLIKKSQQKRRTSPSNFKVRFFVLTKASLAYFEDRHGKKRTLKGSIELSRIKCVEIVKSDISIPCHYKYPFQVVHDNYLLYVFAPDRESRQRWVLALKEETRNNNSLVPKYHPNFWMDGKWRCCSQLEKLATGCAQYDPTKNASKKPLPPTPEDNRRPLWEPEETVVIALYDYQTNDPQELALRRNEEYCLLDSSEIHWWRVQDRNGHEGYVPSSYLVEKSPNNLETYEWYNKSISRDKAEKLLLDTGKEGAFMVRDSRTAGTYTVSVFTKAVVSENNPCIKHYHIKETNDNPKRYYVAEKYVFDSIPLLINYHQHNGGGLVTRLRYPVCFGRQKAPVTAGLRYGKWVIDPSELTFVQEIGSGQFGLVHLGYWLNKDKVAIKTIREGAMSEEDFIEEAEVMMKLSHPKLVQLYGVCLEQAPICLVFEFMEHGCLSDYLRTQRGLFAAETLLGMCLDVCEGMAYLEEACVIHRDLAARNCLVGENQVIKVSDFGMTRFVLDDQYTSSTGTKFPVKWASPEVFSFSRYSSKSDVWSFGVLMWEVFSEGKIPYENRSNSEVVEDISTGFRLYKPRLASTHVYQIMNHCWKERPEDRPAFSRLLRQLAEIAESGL

[7] = molecular target: Tyrosine-protein kinase Lck (Homo sapiens, UniProt P06239); experiment: Inhibition of recombinant full length human C-terminal His-tagged LCK cytoplasmic domain expressed in baculovirus expression system assessed as enzyme residual activity at 0.4 uM using fluorophore-labeled tyrosine-2 peptide as substrate incubated for 60 mins by Z'-LYTE assay relative to control
Sequence of Tyrosine-protein kinase Lck (P06239 2-509 limits assumed): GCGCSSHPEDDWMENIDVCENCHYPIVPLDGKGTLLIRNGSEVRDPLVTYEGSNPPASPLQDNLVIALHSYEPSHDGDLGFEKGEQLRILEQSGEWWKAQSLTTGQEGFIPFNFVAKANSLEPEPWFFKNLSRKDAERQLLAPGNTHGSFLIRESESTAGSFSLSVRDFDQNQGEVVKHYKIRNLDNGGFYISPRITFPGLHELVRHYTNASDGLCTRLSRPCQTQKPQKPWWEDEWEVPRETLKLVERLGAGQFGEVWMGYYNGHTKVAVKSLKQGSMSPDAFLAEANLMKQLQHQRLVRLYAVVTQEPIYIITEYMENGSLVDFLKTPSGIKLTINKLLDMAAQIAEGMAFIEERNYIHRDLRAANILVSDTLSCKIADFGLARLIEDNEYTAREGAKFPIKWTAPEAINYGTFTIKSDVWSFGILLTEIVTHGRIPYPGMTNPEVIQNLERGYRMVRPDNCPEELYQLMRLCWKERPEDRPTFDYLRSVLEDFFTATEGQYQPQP

[8] = molecular target: T3, Tyrosine-protein kinase Blk (Homo sapiens, UniProt P51451); experiment: Inhibition of recombinant full-length human His-tagged BLK cytoplasmic domain expressed in baculovirus expression system assessed as enzyme residual activity at 0.4 uM using fluorophore-labeled tyrosine-1 peptide as substrate incubated for 60 mins by Z'-LYTE assay relative to control
Target sequence in this assay (P51451 2-505 limits assumed): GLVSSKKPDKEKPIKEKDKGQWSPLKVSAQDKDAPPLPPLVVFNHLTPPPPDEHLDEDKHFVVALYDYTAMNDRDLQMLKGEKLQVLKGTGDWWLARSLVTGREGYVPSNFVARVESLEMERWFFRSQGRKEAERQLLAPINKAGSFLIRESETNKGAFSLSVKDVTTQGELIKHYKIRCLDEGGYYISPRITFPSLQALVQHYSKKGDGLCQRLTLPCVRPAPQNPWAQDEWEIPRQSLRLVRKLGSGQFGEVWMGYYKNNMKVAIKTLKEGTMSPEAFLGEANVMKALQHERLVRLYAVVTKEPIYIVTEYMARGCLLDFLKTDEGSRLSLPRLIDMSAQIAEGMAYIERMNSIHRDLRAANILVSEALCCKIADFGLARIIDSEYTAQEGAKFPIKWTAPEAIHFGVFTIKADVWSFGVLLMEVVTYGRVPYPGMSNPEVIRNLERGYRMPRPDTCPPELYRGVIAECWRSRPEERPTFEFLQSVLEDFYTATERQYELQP

MOLT-4 [9] = experiment: Induction of apoptosis in human MOLT4 cells assessed as upregulation of cleaved PARP at 1 to 20 uM incubated for 24 hrs by Western blot analysis; assay type: functional, cell-based
Homo sapiens [10] = organism: Homo sapiens; experiment: Selectivity ratio of IC50 for recombinant human N-terminal GST-tagged EGFR kinase domain (696 to end residues) expressed in baculovirus infected Sf21 insect cells to IC50 for recombinant human N-terminal His6-tagged ITK (352 to 617 residues) expressed in baculovirus infected Sf21 insect cells
[11] = molecular target: T3, Tyrosine-protein kinase Blk; experiment: Inhibition of recombinant full-length human His-tagged BLK cytoplasmic domain expressed in baculovirus expression system using fluorophore-labeled tyrosine-1 peptide as substrate incubated for 60 mins by Z'-LYTE assay
Target sequence in this assay (P51451 whole entry, the tested form may be a part): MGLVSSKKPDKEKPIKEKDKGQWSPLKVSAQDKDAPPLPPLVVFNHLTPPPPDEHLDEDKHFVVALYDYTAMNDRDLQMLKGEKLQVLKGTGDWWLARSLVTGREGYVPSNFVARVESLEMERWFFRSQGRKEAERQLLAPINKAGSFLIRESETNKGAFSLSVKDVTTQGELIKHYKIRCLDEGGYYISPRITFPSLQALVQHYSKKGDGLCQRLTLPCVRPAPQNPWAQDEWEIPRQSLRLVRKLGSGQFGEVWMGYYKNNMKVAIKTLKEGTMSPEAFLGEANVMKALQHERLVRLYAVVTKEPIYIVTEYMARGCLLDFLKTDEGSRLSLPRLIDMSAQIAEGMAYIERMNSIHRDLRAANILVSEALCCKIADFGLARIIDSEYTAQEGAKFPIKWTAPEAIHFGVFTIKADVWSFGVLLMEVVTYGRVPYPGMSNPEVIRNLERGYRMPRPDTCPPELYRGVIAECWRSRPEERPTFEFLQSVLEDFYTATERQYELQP

[12] = molecular target: T1, Tyrosine-protein kinase BTK; experiment: Inhibition of BTK in human Ramos cells assessed as reduction in […] PLCgamma2 phosphorylation at 10 to 3000 nM preincubated for 2 hrs followed by […] addition and measured after 30 min by Western blot analysis; assay type: cell-based
[13] = molecular target: Mitogen-activated protein kinase 14 (Homo sapiens) (UniProt Q16539); experiment: Inhibition of recombinant full length human GST-tagged MAPK14 expressed in Escherichia coli assessed as enzyme residual activity at 0.4 uM using fluorophore-labeled serine/threonine-04 peptide as substrate incubated for 60 mins by Z'-LYTE assay relative to control
Sequence of Mitogen-activated protein kinase 14 (Homo sapiens) (Q16539 whole entry): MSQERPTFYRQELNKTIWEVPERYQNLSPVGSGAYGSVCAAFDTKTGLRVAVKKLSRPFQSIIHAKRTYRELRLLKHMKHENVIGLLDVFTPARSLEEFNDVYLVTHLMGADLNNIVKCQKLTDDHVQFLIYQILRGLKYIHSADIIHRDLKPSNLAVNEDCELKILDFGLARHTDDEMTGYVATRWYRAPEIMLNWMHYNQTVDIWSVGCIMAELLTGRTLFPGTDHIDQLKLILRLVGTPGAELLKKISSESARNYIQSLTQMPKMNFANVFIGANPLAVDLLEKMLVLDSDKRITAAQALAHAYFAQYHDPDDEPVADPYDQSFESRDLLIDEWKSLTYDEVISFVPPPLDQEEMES

C=CC(=O)N1CCC(Oc2nc(Nc3ccc(N4CCOCC4)cc3)nc3[nH]cc(-c4cncc(NC)n4)c23)CC1
GI50 (H9): 232 nM | Activity [1]: 29.3% | Activity [2]: 97% | Activity (MOLT-4 [3]): Active | Ratio IC50 (Homo sapiens [4]): 250 | Activity [5]: 41.3% | GI50 (CCRF-CEM): 127 nM | Activity (Jurkat): Active | Ratio [6]: 101 ×10³ /M.s | Activity [7]: 9% | Activity [8]: 9% | Activity (MOLT-4 [9]): Active | Ratio IC50 (Homo sapiens [10]): 250 | IC50 [11]: 198 nM | inhibition [12]: inactive | Activity [13]: 95%
